Laboratory results taken from PubChem BioAssay AID1963837 (Molecular Pharmacology Branch, DTP, NCI, 2024).

Tested on: 843126-344-R-J1-PDC complex spheroid viability
Assay: Anticancer human tumor 843126-344-R-J1-PDC patient-derived melanoma cell line growth inhibition [POLQ]
Conditions: for IC50: curve of first compound; for viability, T/C: stronger effect = lower value
Outline: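 Patient-derived tumour cells were co-cultured with HUVEC and mesenchymal stem cells as multicellular spheroids at 37 °C. They were treated with POLQ inhibitors (novobiocin, ART-558, RP6685) alone or combined with other agents. Top concentrations were at or near clinical Cmax (otherwise 10 microM; SN-38 at 1 microM), decreasing in half-log steps.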
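Wherever viability, T/C is given: spheroids exposed to drugs for seven days before readout.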

Question: Which results are given for `COc1ccc([C@@H](O)c2cc(-c3ncnc4cc(N5CCOCC5)ccc34)c(F)cc2Cl)nn1` + Cc1cccc(N(C)C(=O)C2C(O)CCN2c2nc(C)cc(C(F)(F)F)c2C#N)c1?
Answer: IC50 (second compound 0.0316 µM): > 10 µM; IC50 (second compound 0.1 µM): > 10 µM; IC50 (second compound 0.316 µM): > 10 µM; IC50 (second compound 1 µM): > 10 µM; IC50 (second compound 3.16 µM): > 10 µM; IC50 (second compound 10 µM): > 10 µM; viability, T/C (second compound 0.0316 µM, first compound 0.0316 µM): 95.1%; viability, T/C (second compound 0.0316 µM, first compound 0.1 µM): 76.6%; viability, T/C (second compound 0.0316 µM, first compound 0.316 µM): 93.3%; viability, T/C (second compound 0.0316 µM, first compound 1 µM): 96.9%; viability, T/C (second compound 0.0316 µM, first compound 3.16 µM): 81%; viability, T/C (second compound 0.0316 µM, first compound 10 µM): 63.5%; viability, T/C (second compound 0.1 µM, first compound 0.0316 µM): 85.2%; viability, T/C (second compound 0.1 µM, first compound 0.1 µM): 92.7%; viability, T/C (second compound 0.1 µM, first compound 0.316 µM): 86.4%; viability, T/C (second compound 0.1 µM, first compound 1 µM): 99.2%; viability, T/C (second compound 0.1 µM, first compound 3.16 µM): 93.2%; viability, T/C (second compound 0.1 µM, first compound 10 µM): 63.3%; viability, T/C (second compound 0.316 µM, first compound 0.0316 µM): 103%; viability, T/C (second compound 0.316 µM, first compound 0.1 µM): 102%; viability, T/C (second compound 0.316 µM, first compound 0.316 µM): 92.2%; viability, T/C (second compound 0.316 µM, first compound 1 µM): 102%; viability, T/C (second compound 0.316 µM, first compound 3.16 µM): 76.9%; viability, T/C (second compound 0.316 µM, first compound 10 µM): 80.9%; viability, T/C (second compound 1 µM, first compound 0.0316 µM): 79.2%; viability, T/C (second compound 1 µM, first compound 0.1 µM): 101%; viability, T/C (second compound 1 µM, first compound 0.316 µM): 69.6%; viability, T/C (second compound 1 µM, first compound 1 µM): 86.6%; viability, T/C (second compound 1 µM, first compound 3.16 µM): 79.8%; viability, T/C (second compound 1 µM, first compound 10 µM): 68.1%; viability, T/C (second compound 3.16 µM, first compound 0.0316 µM): 81.2%; viability, T/C (second compound 3.16 µM, first compound 0.1 µM): 89.1%; viability, T/C (second compound 3.16 µM, first compound 0.316 µM): 92.7%; viability, T/C (second compound 3.16 µM, first compound 1 µM): 81.9%; viability, T/C (second compound 3.16 µM, first compound 3.16 µM): 97.4%; viability, T/C (second compound 3.16 µM, first compound 10 µM): 65.6%; viability, T/C (second compound 10 µM, first compound 0.0316 µM): 74.1%; viability, T/C (second compound 10 µM, first compound 0.1 µM): 83.5%; viability, T/C (second compound 10 µM, first compound 0.316 µM): 70.2%; viability, T/C (second compound 10 µM, first compound 1 µM): 66%; viability, T/C (second compound 10 µM, first compound 3.16 µM): 77.4%; viability, T/C (second compound 10 µM, first compound 10 µM): 64.1%
